US10118947B2, “Modulation of structured polypeptide specificity” (BICYCLE THERAPEUTICS LIMITED, priority 2013, dated 2018)
Where two headings read alike, the source gives them in different places. Numbered stars: 1 amine (or outer) side, 2 acyl side, 3 side chain; on linkers, the order of the positions; unused ones are H or OH. Bridge positions count the residues as written; N and C are the ends. Square brackets hold non-standard residues; d marks the D form. Peptide text beside a SMILES is read from it. Phe(4-guanidino) = N=C(N)Nc1ccc(C[C@H](N)C(=O)O)cc1; TBMB = c1c(C[*:1])cc(C[*:3])cc1C[*:2]; NMeH = CN[C@@H](Cc1c[nH]cn1)C(=O)O; NMeR = CN[C@@H](CCCNC(=N)N)C(=O)O; hArg = N=C(N)NCCCC[C@H](N)C(=O)O; NMeQ = CN[C@@H](CCC(N)=O)C(=O)O; NMeD = CN[C@@H](CC(=O)O)C(=O)O; NMeL = CN[C@@H](CC(C)C)C(=O)O; Phg = N[C@H](C(=O)O)c1ccccc1; Aze = O=C(O)[C@@H]1CCN1

Columns and labels:
rat plasma Kallikrein [1] = target: T1, rat plasma Kallikrein (Rattus norvegicus, UniProt P14272); test: Functional enzyme inhibition assay with fluorogenic substrate Z-PheArg-AMC, rat plasma Kallikrein; format: biochemical; conditions: Table 26b, loop 1 and loop 2 modified derivatives
T1 construct: polyhistidine tag (N, cleaved yes); proTEV cleavage site (pro-peptide linker) (N, cleaved yes); made in house; host or cells: HEK-293 (suspension-adapted)
T1 sequence (P14272 391-638 limits assumed): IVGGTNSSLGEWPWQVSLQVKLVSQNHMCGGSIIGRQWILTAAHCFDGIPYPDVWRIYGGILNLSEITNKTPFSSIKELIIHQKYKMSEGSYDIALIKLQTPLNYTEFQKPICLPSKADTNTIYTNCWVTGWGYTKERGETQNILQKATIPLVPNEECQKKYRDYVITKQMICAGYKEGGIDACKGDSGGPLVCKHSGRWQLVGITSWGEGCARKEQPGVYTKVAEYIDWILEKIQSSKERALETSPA
Description: Functional enzyme assays were conducted in 10 mM Tris HCl, 150 mM NaCl, 10 mM MgCl2, 1 mM CaCl2) and 1 mg/mL BSA (all Sigma UK) pH7.4 at 25° C. in solid black 96 well plates. Briefly 26.5 pM human plasma Kallikrein (purchased from Stratech, UK) or 500 pM rat plasma Kallikrein (expressed and purified in house) were incubated in the absence or presence of increasing concentrations of test peptide for 15 minutes before addition of the fluorogenic substrate Z-PheArg-AMC (Enzo Lifesciences UK) to a final assay concentration of 100 μM in 4% DMSO. Release of AMC was measured using a Pherastar FS (BMG Labtech), excitation 360 nm, emission 460 nm. The rate of the linear phase of the reaction, typically 5 to 45 minutes, was calculated in MARS data analysis software (BMG labtech). The rate was then used to calculate the IC50 and Ki in Prism (GraphPad). A four parameter inhibition non-linear regression equation was used to calculate the IC50.
Peptides were dissolved as the TFA-salts in their powder form, and stock solutions were usually prepared in water. All solutions were centrifuged and filtered ([…] syringe filters) prior absorption measurement at 280 nm. Extinction coefficients were calculated based on the Trp/Tyr content of the peptide, and that of TMB (the TMB core, when contained in a peptide, has an ε of ˜300 M^−1cm^−1). For peptides containing non-natural amino acids with suspected chromophoric properties (i.e. NorHar, 4PhenylPro, 3Pal, 4Pal, Tic, 4GuanPhe, 4,4-BPAI, 3,3-DPA, 1NAI, 2NAI, 4BenzylPro, Ind) concentrations were determined by weighing the powder and dissolving the peptide in a defined quantity of water.

human plasma Kallikrein = target: T2, human plasma Kallikrein (Homo sapiens, UniProt P03952); test: Functional enzyme inhibition assay with fluorogenic substrate Z-PheArg-AMC, human plasma Kallikrein; format: biochemical
T2 construct: purchased Stratech, UK
T2 sequence (P03952 20-638): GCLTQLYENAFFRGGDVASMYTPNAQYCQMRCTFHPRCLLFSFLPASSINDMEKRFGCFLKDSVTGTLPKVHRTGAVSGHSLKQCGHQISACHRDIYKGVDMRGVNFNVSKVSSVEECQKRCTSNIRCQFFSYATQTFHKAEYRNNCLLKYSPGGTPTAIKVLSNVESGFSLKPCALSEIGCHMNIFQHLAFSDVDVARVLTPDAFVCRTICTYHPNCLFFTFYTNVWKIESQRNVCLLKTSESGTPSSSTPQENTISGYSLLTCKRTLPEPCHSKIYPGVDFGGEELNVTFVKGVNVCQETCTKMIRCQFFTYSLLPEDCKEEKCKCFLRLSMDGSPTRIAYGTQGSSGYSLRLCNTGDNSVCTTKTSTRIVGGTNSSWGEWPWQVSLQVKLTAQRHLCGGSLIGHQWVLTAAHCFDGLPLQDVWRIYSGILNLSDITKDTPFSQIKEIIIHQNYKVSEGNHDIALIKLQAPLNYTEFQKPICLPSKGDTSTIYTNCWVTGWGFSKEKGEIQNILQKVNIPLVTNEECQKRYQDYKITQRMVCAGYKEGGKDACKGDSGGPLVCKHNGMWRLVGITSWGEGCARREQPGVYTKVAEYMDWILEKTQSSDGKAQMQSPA
How it was run: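 Rates of AMC release (excitation 360 nm, emission 460 nm) from 100 μM final Z-PheArg-AMC, 4% DMSO, were taken over the linear phase, typically 5 to 45 minutes. IC50 from four-parameter non-linear regression; Ki also derived.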

rat plasma Kallikrein [2] = target: T1, rat plasma Kallikrein; conditions: Table 1; read-out: Ki (nM) (rat kallikrein); cited from earlier work
[3] = Plasma stability / fragment profiling Method #2 (MALDI-TOF, 95% plasma), human plasma; format: in vitro ADME; conditions: peptide fragments observed after incubation in human plasma
Description: To obtain stability data more rapidly, peptides were also assessed in 95% plasma. Here, PBS was omitted, and a 1 mM peptide stock (in DMSO) was directly diluted into plasma (i.e. 2.5 uL stock into 47.5 uL plasma), giving a final concentration of 50 uM. 5 uL samples were taken at appropriate time points and frozen at −80 deg C. For analysis, the samples were defrosted, mixed with 15 uL of 1:1 acetonitrile:methanol, and centrifuged at 13 k for 5 min. 5 uL of the peptide-containing supernatant was aspirated and mixed with 30 mM ammonium bicarbonate in a 1:1 mixture of acetonitrile:H2O. 1 uL of this was then spotted on the MALDI plate and analysed as described above. As above, it should be noted that this is a qualitative assay serves to detect relative changes in plasma stability.
Ac-06-34-18(TMB)-NH2 Phe2 Tyr4 (referred to as wild type peptide) was subsequently subjected to human plasma, and analysed for fragments to appear over time. This was compared to the degradation profile observed in human plasma using the NMe-Arg5 derivative of 06-34-18 (FIGS. 18a and 18b). Fragmentation was determined according to Method #2.

[4] = Table 26b, loop 1 and loop 2 modified derivatives, read-out: Ki (nM) (human kallikrein)
[5] = Table 3b, D-amino acid scan in Loop2, read-out: Ki
[6] = Table 3b, ratio of Ki to wild type
[7] = Table 25a, fold change of Ki of variant compared to WT
[8] = Table 25a, α-N-methyl amino acid scan in Loop2, human plasma kallikrein, read-out: Ki

F (Kivar/KiWT) (human plasma Kallikrein; [7]) | Ki (human plasma Kallikrein; [8]) | Fragments (human plasma) ([3]; Table 25a) | SMILES | other results
105 | 44.3 nM | -R, -FPYR | CC(=O)N[C@H]1CSCc2cc3cc(c2)CSC[C@H](NC(=O)[C@H](CCCNC(=N)N)NC(=O)[C@H](Cc2ccc(O)cc2)NC(=O)[C@@H]2CCCN2C(=O)[C@H](Cc2ccccc2)NC(=O)[C@H](CO)NC1=O)C(=O)N[C@@H](CC(C)C)C(=O)N[C@@H](Cc1c[nH]cn1)C(=O)N[C@@H](CCC(N)=O)C(=O)N(C)[C@@H](CC(=O)O)C(=O)N[C@@H](CC(C)C)C(=O)N[C@H](C(N)=O)CSC3 [Ac-(06-34-18) Phe2 Tyr4 NMe-Asp9] (Ac-CSFPYRCLHQ[NMeD]LC-NH2; linker 1-7-13 via TBMB) | –
149 | 62.8 nM | -R, -FPYR | CC(=O)N[C@H]1CSCc2cc3cc(c2)CSC[C@H](NC(=O)[C@H](CCCNC(=N)N)NC(=O)[C@H](Cc2ccc(O)cc2)NC(=O)[C@@H]2CCCN2C(=O)[C@H](Cc2ccccc2)NC(=O)[C@H](CO)NC1=O)C(=O)N[C@@H](CC(C)C)C(=O)N[C@@H](Cc1c[nH]cn1)C(=O)N(C)[C@@H](CCC(N)=O)C(=O)N[C@@H](CC(=O)O)C(=O)N[C@@H](CC(C)C)C(=O)N[C@H](C(N)=O)CSC3 [Ac-(06-34-18) Phe2 Tyr4 NMe-Gln8] (Ac-CSFPYRCLH[NMeQ]DLC-NH2; linker 1-7-13 via TBMB) | –
137 | 57.4 nM | -R, -FPYR | CC(=O)N[C@H]1CSCc2cc3cc(c2)CSC[C@H](NC(=O)[C@H](CCCNC(=N)N)NC(=O)[C@H](Cc2ccc(O)cc2)NC(=O)[C@@H]2CCCN2C(=O)[C@H](Cc2ccccc2)NC(=O)[C@H](CO)NC1=O)C(=O)N(C)[C@@H](CC(C)C)C(=O)N[C@@H](Cc1c[nH]cn1)C(=O)N[C@@H](CCC(N)=O)C(=O)N[C@@H](CC(=O)O)C(=O)N[C@@H](CC(C)C)C(=O)N[C@H](C(N)=O)CSC3 [Ac-(06-34-18) Phe2 Tyr4 NMe-Leu6] (Ac-CSFPYRC[NMeL]HQDLC-NH2; linker 1-7-13 via TBMB) | –
1396 | 586 nM | -R, -FPYR | CC(=O)N[C@H]1CSCc2cc3cc(c2)CSC[C@H](NC(=O)[C@H](CCCNC(=N)N)NC(=O)[C@H](Cc2ccc(O)cc2)NC(=O)[C@@H]2CCCN2C(=O)[C@H](Cc2ccccc2)NC(=O)[C@H](CO)NC1=O)C(=O)N[C@@H](CC(C)C)C(=O)N[C@@H](Cc1c[nH]cn1)C(=O)N[C@@H](CCC(N)=O)C(=O)N[C@@H](CC(=O)O)C(=O)N(C)[C@@H](CC(C)C)C(=O)N[C@H](C(N)=O)CSC3 [Ac-(06-34-18) Phe2 Tyr4 NMe-Leu10] (Ac-CSFPYRCLHQD[NMeL]C-NH2; linker 1-7-13 via TBMB) | –

Further lines, the molecule ahead of its results:

SMILES | F (Kivar/KiWT) (human plasma Kallikrein; [7]) | Ki (human plasma Kallikrein; [8]) | Fragments (human plasma) ([3]; Table 25a) | other results
CC(=O)N[C@H]1CSCc2cc3cc(c2)CSC[C@H](NC(=O)[C@H](CCCCNC(=N)N)NC(=O)[C@H](Cc2ccc(O)cc2)NC(=O)[C@@H]2CCN2C(=O)[C@H](Cc2ccccc2)NC(=O)[C@H](CO)NC1=O)C(=O)N[C@@H](C)CN[C@@H](Cc1c[nH]cn1)C(=O)N[C@@H](CCC(N)=O)C(=O)N[C@@H](CC(=O)O)C(=O)N[C@@H](CC(C)C)C(=O)N[C@H](C(N)=O)CSC3 | – | – | – | Ki (rat plasma Kallikrein [1]): 41 nM; Ki (human plasma Kallikrein; [4]): 0.44 nM
CC(=O)N[C@H]1CSCc2cc3cc(c2)CSC[C@H](NC(=O)[C@H](CCCCNC(=N)N)NC(=O)[C@H](C)NC(=O)[C@@H]2CCN2C(=O)[C@H](Cc2c[nH]c4ccccc24)NC(=O)[C@H](CO)NC1=O)C(=O)N[C@@H](c1ccccc1)C(=O)N[C@@H](Cc1c[nH]cn1)C(=O)N[C@@H](CCC(N)=O)C(=O)N[C@@H](CC(=O)O)C(=O)N[C@@H](CC(C)C)C(=O)N[C@H](C(N)=O)CSC3 [Ac-(06-34-18) Aze3 HArg5 Phg6] (Ac-CSW[Aze]A[hArg]C[Phg]HQDLC-NH2; linker 1-7-13 via TBMB) | – | – | – | Ki (rat plasma Kallikrein [1]): 57 nM; Ki (human plasma Kallikrein; [4]): 0.52 nM
CC(=O)N[C@H]1CSCc2cc3cc(c2)CSC[C@H](NC(=O)[C@H](CCCCNC(=N)N)NC(=O)[C@H](Cc2ccc(O)cc2)NC(=O)[C@@H]2CCN2C(=O)[C@H](Cc2ccccc2)NC(=O)[C@H](CO)NC1=O)C(=O)N[C@@H](CC(C)C)C(=O)N[C@@H](Cc1c[nH]cn1)C(=O)N[C@@H](CCC(N)=O)C(=O)N[C@@H](CC(=O)O)C(=O)N[C@@H](CC(C)C)C(=O)N[C@H](C(N)=O)CSC3 [Ac-(06-34-18) Phe2 Aze3 Tyr4 HomoArg5] (Ac-CSF[Aze]Y[hArg]CLHQDLC-NH2; linker 1-7-13 via TBMB) | – | – | – | Ki (rat plasma Kallikrein [2]): 3 nM
CC(=O)N[C@H]1CSCc2cc3cc(c2)CSC[C@H](NC(=O)[C@H](Cc2ccc(NC(=N)N)cc2)NC(=O)[C@H](Cc2ccc(O)cc2)NC(=O)[C@@H]2CCN2C(=O)[C@H](Cc2ccccc2)NC(=O)[C@H](CO)NC1=O)C(=O)N[C@@H](CC(C)C)C(=O)N[C@@H](Cc1c[nH]cn1)C(=O)N[C@@H](CCC(N)=O)C(=O)N[C@@H](CC(=O)O)C(=O)N[C@@H](CC(C)C)C(=O)N[C@H](C(N)=O)CSC3 [Ac-(06-34-18) Phe2 Aze3Tyr4 4GuanPhe5] (Ac-CSF[Aze]Y[Phe(4-guanidino)]CLHQDLC-NH2; linker 1-7-13 via TBMB) | – | – | – | Ki (rat plasma Kallikrein [2]): 1.2 nM
CC(=O)N[C@H]1CSCc2cc3cc(c2)CSC[C@H](NC(=O)[C@H](CCCNC(=N)N)N(C)C(=O)[C@H](Cc2ccc(O)cc2)NC(=O)[C@@H]2CCN2C(=O)[C@H](Cc2ccccc2)NC(=O)[C@H](CO)NC1=O)C(=O)N[C@@H](CC(C)C)C(=O)N[C@@H](Cc1c[nH]cn1)C(=O)N[C@@H](CCC(N)=O)C(=O)N[C@@H](CC(=O)O)C(=O)N[C@@H](CC(C)C)C(=O)N[C@H](C(N)=O)CSC3 [Ac-(06-34-18) Phe2 Aze3Tyr4 NMeArg5] (Ac-CSF[Aze]Y[NMeR]CLHQDLC-NH2; linker 1-7-13 via TBMB) | – | – | – | Ki (rat plasma Kallikrein [2]): 31.4 nM
CC(=O)N[C@H]1CSCc2cc3cc(c2)CSC[C@H](NC(=O)[C@H](CCCNC(=N)N)NC(=O)[C@H](Cc2ccc(O)cc2)NC(=O)[C@@H]2CCCN2C(=O)[C@H](Cc2ccccc2)NC(=O)[C@H](CO)NC1=O)C(=O)N[C@H](CC(C)C)C(=O)N[C@@H](Cc1c[nH]cn1)C(=O)N[C@@H](CCC(N)=O)C(=O)N[C@@H](CC(=O)O)C(=O)N[C@@H](CC(C)C)C(=O)N[C@H](C(N)=O)CSC3 [Ac-(06-34-18) Phe2 Tyr4 D-Leu6] (Ac-CSFPYRC[dL]HQDLC-NH2; linker 1-7-13 via TBMB) | – | – | – | Ki (human plasma Kallikrein; [5]): 9080 nM; F (Kivar/KiWT) (human plasma Kallikrein; [6]): 21615; Fragments (human plasma) ([3]; Table 3b): -R, -FPYR
CC(=O)N[C@H]1CSCc2cc3cc(c2)CSC[C@H](NC(=O)[C@H](CCCNC(=N)N)NC(=O)[C@H](Cc2ccc(O)cc2)NC(=O)[C@@H]2CCCN2C(=O)[C@H](Cc2ccccc2)NC(=O)[C@H](CO)NC1=O)C(=O)N[C@@H](CC(C)C)C(=O)N[C@@H](Cc1c[nH]cn1)C(=O)N[C@@H](CCC(N)=O)C(=O)N[C@@H](CC(=O)O)C(=O)N[C@H](CC(C)C)C(=O)N[C@H](C(N)=O)CSC3 [Ac-(06-34-18) Phe2 Tyr4 D-Leu10] (Ac-CSFPYRCLHQD[dL]C-NH2; linker 1-7-13 via TBMB) | – | – | – | Ki (human plasma Kallikrein; [5]): 416 nM; F (Kivar/KiWT) (human plasma Kallikrein; [6]): 990; Fragments (human plasma) ([3]; Table 3b): -R, -FPYR
CC(=O)N[C@H]1CSCc2cc3cc(c2)CSC[C@H](NC(=O)[C@H](CCCNC(=N)N)NC(=O)[C@H](Cc2ccc(O)cc2)NC(=O)[C@@H]2CCCN2C(=O)[C@H](Cc2ccccc2)NC(=O)[C@H](CO)NC1=O)C(=O)N[C@@H](CC(C)C)C(=O)N(C)[C@@H](Cc1cnc[nH]1)C(=O)N[C@@H](CCC(N)=O)C(=O)N[C@@H](CC(=O)O)C(=O)N[C@@H](CC(C)C)C(=O)N[C@H](C(N)=O)CSC3 [Ac-(06-34-18) Phe2 Tyr4 NMe-His7] (Ac-CSFPYRCL[NMeH]QDLC-NH2; linker 1-7-13 via TBMB) | 151 | 63.5 nM | -R, -FPYR | –
